Values quoted from earlier work in patent US20240366648A1, “NAD-AUGMENTATION THERAPY FOR PARKINSON'S DISEASE” (Vestlandets Innovasjonsselskap AS (VIS), priority 2021, published 2024).

B1: cinpanemab: a-synuclein antibody drug (antibody, chains of the INN, looked up, V domains shown)
VH: EVQLVESGGGLVEPGGSLRLSCAVSGFDFEKAWMSWVRQAPGQGLQWVARIKSTADGGTTSYAAPVEGRFIISRDDSRNMLYLQMNSLKTEDTAVYYCTSAHWGQGTLVTVSS
VL: SYELTQPPSVSVSPGQTARITCSGEALPMQFAHWYQQRPGKAPVIVVYKDSERPSGVPERFSGSSSGTTATLTITGVQAEDEADYYCQSPDSTNTYEVFGGGTKLTVL

Tests used:
PD patients = conditions: cited from earlier work
a-synuclein = molecular target: T1, a-synuclein (Homo sapiens, UniProt P37840); conditions: in vivo; cited from earlier work
T1 construct: host or cells: PD patients in a clinical trial (endogenous protein)

Molecule | decrease of motor decline compared to tocopherol (PD patients) | clinical trial outcome in PD (a-synuclein)
C#CCN(C)[C@H](C)Cc1ccccc1 [L-Deprenyl, selegiline] | 50% | –
B1 | – | did not achieve proof-of-concept and missed its primary and secondary endpoints
